Source: patent US20230348401A1, “Inhibitors of Glucose-6-phosphate Dehydrogenase and Uses Thereof” (The Trustees of Princeton University, priority 2020, published 2023)

What was measured:
G6PD [1] = biological target: T1, G6PD (Homo sapiens, UniProt P11413); assay: Cellular thermal shift assay (CETSA) in HepG2 lysates; assay type: binding; design: endogenous in cells; conditions: up to 56° C.
Protocol: Lysates from HepG2 cells at 75% confluence were isolated with 0.5% Triton in TBS (20 mM, Tris pH 7.4, 150 mM NaCl) for 30 min on ice, pre-cleared by centrifugation and used for thermal shift assay as described 49. Briefly, inhibitor or DMSO control was added to lysates at indicated concentration and incubated for 30 min on ice followed by 3 min heating at 47° C., 50° C., 53° C., and 56° C. in a thermal cycler. After heating, tubes were cooled at room temperature for 3 min and insoluble fraction removed by centrifugation at 17,000 g for 20 min. The soluble fraction was separated by SDS-PAGE, transferred to PVDF membrane, and immunoblotted using indicated antibodies at a dilution of 1:2000. Blots were developed by chemiluminescence and imaged using LI-COR C-DiGit Western Blot Scanner. Two independent experiments were performed. Signal intensity of proteins from immunoblots was quantified using Image Studio version 5.2 for C-DiGit Scanner, and bands were normalized to signal intensity of the 47° C. treated samples. Relative signal intensities were plotted as bar graph relative to the DMSO treated control.
Target sequence in this assay (P11413 whole entry): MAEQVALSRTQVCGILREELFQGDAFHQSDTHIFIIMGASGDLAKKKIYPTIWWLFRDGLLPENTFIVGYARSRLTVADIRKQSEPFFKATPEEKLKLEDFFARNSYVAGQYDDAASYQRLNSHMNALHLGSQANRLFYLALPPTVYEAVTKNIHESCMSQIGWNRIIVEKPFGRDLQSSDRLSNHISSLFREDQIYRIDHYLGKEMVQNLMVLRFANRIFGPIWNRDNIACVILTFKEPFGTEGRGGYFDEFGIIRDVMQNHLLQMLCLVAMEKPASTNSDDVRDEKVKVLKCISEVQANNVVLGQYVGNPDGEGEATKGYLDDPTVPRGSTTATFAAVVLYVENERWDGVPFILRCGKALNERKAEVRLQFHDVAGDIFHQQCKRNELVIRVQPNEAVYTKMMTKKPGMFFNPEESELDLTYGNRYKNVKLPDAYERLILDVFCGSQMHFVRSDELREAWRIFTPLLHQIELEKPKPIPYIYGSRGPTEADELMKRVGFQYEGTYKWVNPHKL

G6PD [2] = biological target: T1, G6PD; assay: 6-pg levels in HepG2 cells (cellular target engagement); assay type: cell-based; design: endogenous in cells; conditions: HepG2 cells
Source text: Direct Monitoring of 6-pg in cells. The metabolite 6-phosphogluconate (6-pg) is a downstream product of the G6PD reaction, and is believed to be made predominantly by the oxidative pentose phosphate pathway in mammalian cells. Though the direct product of G6PD is the lactone form of 6-pg (6-phosphogluconolactone), this product is believed to readily hydrolyze to 6-pg under cellular conditions, and is therefore difficult to detect. Thus, to directly monitor the G6PD reaction, methods for measuring 6-pg levels in intact cells were developed.
To explore this possibility further, more specific assays for evaluating G6PD cellular target engagement were developed. […] These included the hepatocellular carcinoma line, HepG2, which was selected as the primary cell for direct 6-pg monitoring. Consistent with the oxPPP being the primary source of 6-pg in these cells, G6PD knockout led to nearly complete 6-pg loss (FIGS. 1B and 1C).
(§1) For analysis of intracellular metabolites by LC-MS, adherent cell lines were plated and grown to 80% confluency in 6-well plates. At the start of an experiment, the appropriate media was added to cells, which included isotope tracers and/or chemical inhibitors as described. Cells were incubated at 37° C. at 5% CO2 for 2 hours (unless otherwise noted). For all experiments involving small molecule agents, DMSO concentrations were <0.2%. After 2 hours, media was removed by aspiration and metabolome extraction was performed (without any wash steps) by the addition of 800 µL of ice cold solvent (40:40:20 acetonitrile:methanol:water + 0.5% formic acid). After a 1-minute incubation on ice, the extract was neutralized by the addition of NH4HCO3 (15% w/v). The samples were incubated at -20° C. for approximately 30 minutes, at which point the wells were scraped and the extract transferred to Eppendorf tubes and centrifuged (15 minutes, 16000 rpm, 4° C.). The resulting supernatant was frozen on dry ice and kept at -80° C. until LC-MS analysis.
Metabolites were analyzed using a quadrupole-orbitrap mass spectrometer (Q Exactive Plus, Thermo Fisher Scientific, Waltham, MA), coupled to hydrophilic interaction chromatography (HILIC) with LC separation on a XBridge BEH Amide column (Waters), or a stand-alone orbitrap (Thermo-Fisher Exactive) coupled to reversed-phase ion-pairing chromatography with LC separation on a HSS-T3 column (Waters). Both mass spectrometers were operating in negative ion mode and were coupled to their respective liquid chromatography methods via electrospray-ionization. Detailed analytical conditions have been previously described.
Target sequence in this assay (P11413 whole entry): as above

G6PD [3] = biological target: T1, G6PD; assay: 2H transfer from 1-2H-glucose to NADPH active hydride and C16:0 in HCT116 cells; assay type: cell-based; design: endogenous in cells; host or cells: HCT116
Source text: Direct Monitoring of NADPH Produced by the G6PD Reaction. […] NADPH production is compartmentalized, and occurs through reduction of its redox partner NADP^+. G6PD is one of the main enzymes that generates NADPH, and catalyzes the transfer of electrons (in the form of hydride) from glucose-6-phosphate to NADP^+. By installing a deuterium at the “one” position of glucose (1-^2H-glucose), the transfer of that deuterium to the active hydride of NADPH via glucose-6-phosphate can be specifically monitored. Also, a major use of cytosolic NADPH is fat synthesis. Transfer of ^2H from glucose via NADPH into free palmitate (C16:0) requires two NADPH per two-carbon unit addition during its synthesis.
Next, G6PD mediated hydride transfer to NADPH was directly monitored. Specifically, transfer of deuterium from 1-^2H-glucose, via glucose-6-phosphate, to the NADPH’s active hydride was monitored (FIG. 1B). […] The impacted step was G6PD, as no change in substrate (G6P) labeling was observed (FIG. 1E). A major use of cytosolic NADPH is fat synthesis. Transfer of ^2H from glucose via NADPH into palmitate (C16:0), which requires two NADPH per 2-carbon unit addition during its synthesis, was quantified (FIG. 1B).
For all experiments involving stable isotope tracers (e.g., 1-^2H-glucose), the isotope tracer nutrient was substituted for unlabeled nutrient at the same concentration normally found in the base media for a given cell type (e.g., DMEM for HCT116, RPMI for T cells, etc.). In addition, dialyzed FBS was used as a supplement in place of FBS.
Cytosolic NADPH sources were traced, and redox active hydride labeling was calculated, using a previously described strategy. 1-^2H-glucose (which directly traces G6PD) or 3-^2H-glucose (which directly traces PGD) were used for tracing oxPPP contribution to NADPH; 4-^2H-glucose for ME1; [2,3,3,4,4-^2H5]-glutamine, for both ME1 and IDH1; and D2O, to account for solvent exchange.
as §1
Target sequence in this assay (P11413 whole entry): as above

G6PD [4] = biological target: T1, G6PD; assay: G6PD enzymatic activity by diaphorase-coupled assay; conditions: IC50 (half-maximal inhibitory constant) against human G6PD, coupled enzymatic assay, recombinant human enzyme
Target sequence in this assay (P11413 28-515): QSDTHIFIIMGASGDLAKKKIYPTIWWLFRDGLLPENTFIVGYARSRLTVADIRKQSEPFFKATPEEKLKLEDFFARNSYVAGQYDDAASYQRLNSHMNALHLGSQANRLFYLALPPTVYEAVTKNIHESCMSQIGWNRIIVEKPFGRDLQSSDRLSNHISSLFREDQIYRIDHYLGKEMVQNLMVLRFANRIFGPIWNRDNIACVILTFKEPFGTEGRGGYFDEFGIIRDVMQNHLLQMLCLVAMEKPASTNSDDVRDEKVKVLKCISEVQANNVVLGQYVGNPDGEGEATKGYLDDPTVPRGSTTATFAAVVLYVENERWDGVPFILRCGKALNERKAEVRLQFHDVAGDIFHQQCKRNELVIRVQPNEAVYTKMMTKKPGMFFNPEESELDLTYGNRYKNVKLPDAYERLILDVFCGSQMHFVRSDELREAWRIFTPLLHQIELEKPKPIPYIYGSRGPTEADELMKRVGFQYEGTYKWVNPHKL

C[C@]12CC[C@H](O)CC1=CC[C@@H]1[C@@H]2CC[C@]2(C)C(=O)CC[C@@H]12 [DHEA, dehydroepiandrosterone]
thermal stabilization of G6PD (G6PD [1]): not | 6-pg level (G6PD [2]; 100 µM, 2 hours): did not impact the 6-pg level | dose-dependent decrease in 6-pg levels (G6PD [2]; dose-response): not | C16:0 labeling (G6PD [3]; 100 µM, 2 hours): did not decrease | NADPH active hydride labeling (G6PD [3]; 100 µM, 2 hours): did not decrease | dose-dependent decrease in 2H transfer from 1-2H-glucose to NADPH's active hydride (G6PD [3]; HCT116 cells, dose-response): not | IC50 (G6PD [4]): ~9.5 µM
